For one data set, the system named is HL-60. As to the kind of experiment: Induction of human HL60 cell differentiation after 4 days by NBT reduction assay. The format is functional, cell-based. The settings on record: HL-60, 96 h.
Data set [1] deals with Rattus norvegicus. The experiment in a line: Agonist activity at VDR in 5/6 nephrectomized uremic Sprague-Dawley rat assessed as dose require to suppress serum PTH level administered 3 times per week for 12 days measured 24 hrs post last dose by ELISA. Format: functional.
For data set [2], the system named is Rattus norvegicus. The experiment in a line: Toxicity in 5/6 nephrectomized uremic Sprague-Dawley rat assessed as dose require to cause hypercalcemia administered 3 times per week for 12 days measured 24 hrs post last dose. Format: organism-based. The settings on record: in vivo.
Data set [3] is described as follows: Therapeutic index, ratio for induction of hypercalcemia over suppression of serum PTH level in 5/6 nephrectomized uremic Sprague-Dawley rat. The format is organism-based. The settings on record: read-out: TI.
In data set [4] the target is T1, Vitamin D3 receptor (Homo sapiens, UniProt P11473).
T1 sequence (P11473 whole entry): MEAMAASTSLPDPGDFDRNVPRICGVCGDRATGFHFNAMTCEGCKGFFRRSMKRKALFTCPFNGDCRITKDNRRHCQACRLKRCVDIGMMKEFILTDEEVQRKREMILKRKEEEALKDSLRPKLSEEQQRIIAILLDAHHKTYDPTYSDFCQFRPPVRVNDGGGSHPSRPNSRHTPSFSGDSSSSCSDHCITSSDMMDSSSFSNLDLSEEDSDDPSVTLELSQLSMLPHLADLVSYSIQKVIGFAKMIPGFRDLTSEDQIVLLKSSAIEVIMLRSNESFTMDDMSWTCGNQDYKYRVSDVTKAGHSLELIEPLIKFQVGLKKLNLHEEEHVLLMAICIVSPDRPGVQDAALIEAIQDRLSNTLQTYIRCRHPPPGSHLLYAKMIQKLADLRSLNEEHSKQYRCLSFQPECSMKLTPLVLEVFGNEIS
The experiment in a line: Binding affinity to VDR (unknown origin).

Data set [5] has as its target T1, Vitamin D3 receptor. As to the kind of experiment: Agonist activity at VDR ligand binding domain (unknown origin) by reporter gene assay.

Bounds are passed on as bounds.

As for `C[C@H](/C=C/[C@H](C)C(C)(C)O)[C@H]1CC[C@H]2/C(=C/C=C3C[C@@H](O)C[C@H](O)C3)CCC[C@]12C` [PARICALCITOL], in the data set with HL-60, a half-maximal response (EC50) required 0.0125 µM. The Activity is 0.02 µg/kg in the data set with Rattus norvegicus [1] and over 0.08 µg/kg in the data set on Rattus norvegicus [2]. Moreover, in data set [3], the selectivity ratio is 4.
Consider `C=C1[C@H](O)CC(=C/C=C2\CCC[C@]3(C)[C@@H]([C@@H](C)OC[C@H](C)C(C)(C)O)CC[C@@H]23)C[C@H]1O`, for which the EC50 with HL-60 was 0.0118 µM; on Vitamin D3 receptor [5], under 0.0001 µM. The Activity is 0.004 µg/kg with Rattus norvegicus [1] and over 0.6 µg/kg in the data set with Rattus norvegicus [2]. The molecule also showed an IC50 at Vitamin D3 receptor [4] of 0.038 µM. Besides, in data set [3], the selectivity ratio is over 50.

Source of the values: ChEMBL document CHEMBL2434873, “Synthesis of VS-105: A novel and potent vitamin D receptor agonist with reduced hypercalcemic effects” (Bioorg Med Chem Lett, 2013).
